Data as given in patent US9683018B2, “Disulfide cyclic polypeptides for the treatment of heart failure” (priority 2013, dated 2017).
Bridge positions count the residues as written; N and C are the ends. Square brackets hold non-standard residues; d marks the D form. Peptide text beside a SMILES is read from it. * marks the point of attachment. pGlu = O=C1CC[C@@H](C(=O)O)N1; NHPhenethyl = c1ccc(CCN*)cc1; d(hCys) = N[C@H](CCS)C(=O)O; Nle = CCCC[C@H](N)C(=O)O; Aib = CC(C)(N)C(=O)O

Tests used:
in vitro = conditions: rat, plasma
Protocol: The calcium flux protocol described above was followed, with the following changes. The peptides were also incubated with 5% rat plasma (Bioreclamation # [sequence]-M, Na Heparin-treated). Readings were taken at time points t0 and t24 hrs, after incubation in a 37° C. tissue culture incubator. Peptide plasma half-life in minutes was estimated by calculating the following:
2) Calculate slope of value above and

[1] = Plasma stability assay (LC-MS); format: in vitro ADME; conditions: male, Sprague-Dawley, heparinized rat plasma, 37° C., Table 3, read-out: Plasma stability t½
Protocol: Working solution: 1 mg/mL test article is prepared in Milli-Q water
Extraction solution: Methanol:Acetonitrile:Water (1:1:1) with 0.1% Formic Acid and 400 ng/mL Glyburide.
Plasma: Male Sprague-Dawley rat plasma (with sodium heparin), purchased from Bioreclamation LLC (Liverpool, N.Y.).
Test article was prepared in one of the following biological matrices: heparinized rat plasma, heparinized rat whole blood or lung homogenate. The plasma and whole blood sample was prepared at 5000 ng/mL by adding 5 uL of 1 mg/mL Working solution to 995 uL of rat plasma or whole blood. Lung homogenate samples were prepared by diluting lung homogenate to 1 mg/ml protein concentration with phosphate buffered saline (PBS), followed by addition of 5 uL Working solution to 995 uL diluted lung homogenate. The samples were incubated at 37° C. with gentle shaking (65˜75 rpm) in a water bath incubator. At times 0 min, 5 min, 15 min, 30 min, 60 min, 120 and 240 min, 25 uL aliquots of incubation samples were transferred to 96-well plate and immediately protein precipitated using 150 uL of Extraction solution. After completion of incubation experiment, the sample plate was centrifuged at 4000 rpm at 4° C. for 10 minutes. Afterwards, a pipetting device (Tecan Temo) was used to transfer the supernatants to another plate and add 50 uL of water to all samples. The plate was vortexed prior to LC-MS analysis.
LC-MS Analysis of stability samples
HPLC: Agilent 1290 HPLC with autosampler
Column: MAC-MOD ACE C18, 3 μm, 30 mm×2.1 mm i.d.
Mobile phase A: 0.1% Formic acid in acetonitrile
Mobile phase B: 0.1% Formic acid in water

hAPJ = molecular target: T1, hAPJ (Homo sapiens, UniProt P35414); test: hAPJ Calcium Flux Assay; format: cell-based; conditions: Chem-5 APJ stable cells, FLIPR calcium flux; read-out: hAPJ Ca2+ Flux EC50
T1 sequence (P35414 1-380): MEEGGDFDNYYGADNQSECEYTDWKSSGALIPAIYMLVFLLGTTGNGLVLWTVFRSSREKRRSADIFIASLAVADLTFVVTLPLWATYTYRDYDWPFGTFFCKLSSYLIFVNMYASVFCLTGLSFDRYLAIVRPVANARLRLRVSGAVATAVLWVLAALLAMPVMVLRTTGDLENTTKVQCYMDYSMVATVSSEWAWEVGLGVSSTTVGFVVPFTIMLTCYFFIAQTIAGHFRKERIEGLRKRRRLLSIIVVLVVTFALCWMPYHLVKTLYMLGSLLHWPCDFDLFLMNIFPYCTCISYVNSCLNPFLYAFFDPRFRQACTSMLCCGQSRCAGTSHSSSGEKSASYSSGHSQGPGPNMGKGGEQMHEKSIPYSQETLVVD
Protocol: Chem-5 APJ stable cells (Millipore # HTS068C) were plated in 384-well format with 10,000 cells/well in 25 ul growth media, then grown 24 hours in a 37° C. tissue culture incubator. One hour before the assay, 25 ul/well FLIPR Calcium 4 dye (Molecular Devices R8142) with 2.5 mM probenecid was added, and cells were incubated one hour in a 37° C. tissue culture incubator. Peptides were solubilized in HBSS, HEPES & 0.1% BSA buffer, and serially-diluted 10-fold, from 50 uM to 5 pM, in triplicate. FLIPR Tetra was used to add peptide to the cells with dye (1:5, for final peptide concentrations ranging from 10 uM to 1 pM). FLIPR dye inside the cells emitted fluorescence after binding to calcium, while fluorescence from outside the cells was masked. Fluorescence was measured using 470-495 excitation and 515-575 emission wavelengths on the FLIPR Tetra. Readings were done for 3 minutes total, beginning 10 seconds before the peptide addition. Maximum-minimum values were calculated and plotted for each peptide concentration, and GraphPad prism software was used to calculate EC50 values at the curve inflection points, for calcium flux stimulation by peptides.

[2] = Surrogate Activity based Plasma stability t½
[3] = Surrogate activity-based Plasma stability t½

| half-life (in vitro; [2]) | half-life (in vitro; [3]) | half-life at 5000 ng/mL [1] | EC50 (hAPJ) | SMILES |
| --- | --- | --- | --- | --- |
| 0.483 h | 0.483 h | 1.08 h | 0.81 nM | CCCC[C@@H]1NC(=O)[C@@H]2CCCN2C(=O)[C@@H](NC(=O)[C@H](CCCCN)NC(=O)[C@H](Cc2c[nH]cn2)NC(=O)[C@H](CO)NC(=O)[C@H](CC(C)C)NC(=O)[C@H](CCCNC(=N)N)NC(=O)[C@@H]2CCCN2C(=O)[C@H](CCCNC(=N)N)NC(=O)[C@@H]2CCC(=O)N2)CSSC[C@@H](C(=O)N[C@@H](Cc2ccccc2)C(=O)O)NC1=O [Example 14, pE-R-P-R-L-S-H-K-C*-P-Nle-C*-F-OH] ([pGlu]RPRLSHKCP[Nle]CF-OH; disulfide 9-12) |
| 0.433 h | 0.433 h | 1.35 h | 128 nM | CCCC[C@@H]1NC(=O)[C@@H]2CCCN2C(=O)CNC(=O)[C@H](CCCCN)NC(=O)[C@@H](NC(=O)[C@H](CO)NC(=O)[C@H](CC(C)C)NC(=O)[C@H](CCCNC(=N)N)NC(=O)[C@@H]2CCCN2C(=O)[C@H](CCCNC(=N)N)NC(=O)[C@@H]2CCC(=O)N2)CSSC[C@@H](C(=O)N[C@@H](Cc2ccccc2)C(=O)O)NC1=O [Example 3, pE-R-P-R-L-S-C*-K-G-P-Nle-C*-F-OH] ([pGlu]RPRLSCKGP[Nle]CF-OH; disulfide 7-12) |
| 2.12 h | 2.12 h | 2.82 h | 0.74 nM | CCCC[C@@H]1NC(=O)[C@@H]2CCCN2C(=O)CNC(=O)[C@H](CCCCN)NC(=O)[C@H](Cc2c[nH]cn2)NC(=O)[C@H](CO)NC(=O)[C@@H](NC(=O)[C@H](CCCNC(=N)N)NC(=O)[C@@H]2CCCN2C(=O)[C@H](CCCNC(=N)N)NC(=O)[C@@H]2CCC(=O)N2)CSSC[C@@H](C(=O)N[C@@H](Cc2ccccc2)C(=O)O)NC1=O [Example 1, pE-R-P-R-C*-S-H-K-G-P-Nle-C*-F-OH] ([pGlu]RPRCSHKGP[Nle]CF-OH; disulfide 5-12) |
| 15.1 h | 15.1 h | 8.42 h | 1.9 nM | CCCC[C@@H]1NC(=O)[C@@H]2CCCN2C(=O)[C@@H](NC(=O)[C@H](CCCCN)NC(=O)[C@H](Cc2c[nH]cn2)NC(=O)[C@@H](C)NC(=O)[C@H](CC(C)C)NC(=O)[C@H](CCCNC(=N)N)NC(=O)[C@@H]2CCCN2C(=O)[C@H](CCCNC(=N)N)NC(=O)[C@@H]2CCC(=O)N2)CSSC[C@@H](C(=O)N[C@H](Cc2ccccc2)C(=O)O)NC1=O [Example 17, pE-R-P-R-L-a-H-K-C*-P-Nle-C*-f-OH] ([pGlu]RPRL[dA]HKCP[Nle]C[dF]-OH; disulfide 9-12) |
|  | 23.9 h |  | 981 nM | CCCC[C@@H]1NC(=O)[C@@H]2CCCN2C(=O)CNC(=O)[C@H](CCCCN)NC(=O)[C@H](NC(=O)[C@H](CO)NC(=O)[C@H](CC(C)C)NC(=O)[C@H](CCCNC(=N)N)NC(=O)[C@@H]2CCCN2C(=O)[C@H](CCCNC(=N)N)NC(=O)[C@@H]2CCC(=O)N2)CSSCC[C@H](C(=O)N[C@@H](Cc2ccccc2)C(=O)O)NC1=O [Example 5, pE-R-P-R-L-S-c*-K-G-P-Nle-(D-hC)*-F-OH] ([pGlu]RPRLS[dC]KGP[Nle][d(hCys)]F-OH; disulfide 7-12) |

| SMILES | half-life (in vitro; [2]) | half-life (in vitro; [3]) | half-life at 5000 ng/mL [1] | EC50 (hAPJ) |
| --- | --- | --- | --- | --- |
| CCCC[C@@H]1NC(=O)[C@@H]2CCCN2C(=O)[C@@H](NC(=O)[C@H](CCCCN)NC(=O)C(C)(C)NC(=O)[C@H](CO)NC(=O)[C@H](CC(C)C)NC(=O)[C@H](CCCNC(=N)N)NC(=O)[C@@H]2CCCN2C(=O)[C@H](CCCNC(=N)N)NC(=O)[C@@H]2CCC(=O)N2)CSSC[C@@H](C(=O)NCCc2ccccc2)NC1=O [Example 15, pE-R-P-R-L-S-Aib-K-C*-P-Nle-C*-NH(Phenethyl)] ([pGlu]RPRLS[Aib]KCP[Nle]C-NHPhenethyl; disulfide 9-12) | 0.683 h | 0.683 h | 0.7 h | 4 nM |
